The text below walks through data of ChEMBL document CHEMBL3091276, “Design, synthesis and evaluation of 6-(4-((substituted-1H-1,2,3-triazol-4-yl)methyl)piperazin-1-yl)phenanthridine analogues as antimycobacterial agents” (Bioorg Med Chem Lett, 2013).

Data set [1] concerns Mycobacterium tuberculosis. Nature of the data set: Antimycobacterial activity in Mycobacterium tuberculosis H37Rv after 5 days by Alamar Blue assay. Particulars: 120 h. In kind it is functional. For orientation: Alamar Blue is a resazurin reagent that responds to reducing activity.
A short description of data set [2]: Cytotoxicity against mouse RAW264.7 cells at 50 ug/ml by MTT assay relative to control. In kind it is cell-based. The settings on record: read-out: INH. (In general: Tetrazolium assays rely on reduction of a dye to a coloured formazan, in cell work by metabolically active cells.)
Data set [3] in a line: Selectivity index, ratio of IC50 for mouse RAW264.7 cells to MIC99 for Mycobacterium tuberculosis H37Rv. In kind it is toxicity. Particulars: read-out: Selectivity Index.
A further data set deals with RAW264.7. In words: Cytotoxicity against mouse RAW264.7 cells by MTT assay. In kind it is cell-based.

Each structure is given as a SMILES string. In brackets after ≈: the same amount, converted by molar mass.

On to `c1ccc(Cn2cc(CN3CCN(c4nc5ccccc5c5ccccc45)CC3)nn2)cc1`, for which the MIC99 – broadly, the lowest concentration that inhibits either 99% of growth or 99% of the strains tested, depending on the study – in data set [1] was 50 µg/mL (≈ 115 µM). The same measure, in the same setting: in the case of `CCc1ccc(-n2cc(CN3CCN(c4nc5ccccc5c5ccccc45)CC3)nn2)cc1` it was 50 µg/mL (≈ 111 µM); in that of `Cc1ccc(-n2cc(CN3CCN(c4nc5ccccc5c5ccccc45)CC3)nn2)c(C)c1`, 12.5 µg/mL (≈ 27.9 µM); in that of `c1ccc2c(c1)nc(N1CCN(Cc3cn(-c4ccc5c(c4)OCO5)nn3)CC1)c1ccccc12`, 50 µg/mL (≈ 108 µM).

`COc1cccc(-n2cc(CN3CCN(c4nc5ccccc5c5ccccc45)CC3)nn2)c1` registered an MIC99 in data set [1] of 50 µg/mL (≈ 111 µM). On to `COc1ccc(-n2cc(CN3CCN(c4nc5ccccc5c5ccccc45)CC3)nn2)cc1`, for which, in data set [2], the cytotoxicity at 50 ug/ml is 19.2%. Besides, the selectivity ratio in data set [3] is above 15. In addition, the IC50 – broadly, the midpoint of a concentration-inhibition curve – with RAW264.7 was above 125 µg/mL. For the same compound, the MIC99 in data set [1] was determined as 3.12 µg/mL (≈ 6.94 µM). For `Clc1ccc(-n2cc(CN3CCN(c4nc5ccccc5c5ccccc45)CC3)nn2)cc1Cl`, the MIC99 in data set [1] amounted to 50 µg/mL (≈ 102 µM). Still for that read-out and setting: in the case of `Clc1ccc(-n2cc(CN3CCN(c4nc5ccccc5c5ccccc45)CC3)nn2)cc1` it was 25 µg/mL (≈ 54.9 µM). With `Clc1ccccc1-n1cc(CN2CCN(c3nc4ccccc4c4ccccc34)CC2)nn1`, the MIC99 in data set [1] was 12.5 µg/mL (≈ 27.5 µM). Take `Clc1cccc(-n2cc(CN3CCN(c4nc5ccccc5c5ccccc45)CC3)nn2)c1`: in data set [2], the cytotoxicity at 50 ug/ml was determined as 12.6%. For the same compound, in data set [3], the selectivity ratio was above 20. The half-inhibitory concentration (IC50) in the data set on RAW264.7 is above 150 µg/mL. In data set [1], this compound came in with an MIC99 of 3.12 µg/mL (≈ 6.87 µM).

In data set [1], `Brc1ccccc1-n1cc(CN2CCN(c3nc4ccccc4c4ccccc34)CC2)nn1` yielded an MIC99 of 50 µg/mL (≈ 100 µM). In data set [1], `Brc1ccc(-n2cc(CN3CCN(c4nc5ccccc5c5ccccc45)CC3)nn2)cc1` showed an MIC99 of 12.5 µg/mL (≈ 25 µM). Still for that read-out and setting: in the case of `Fc1ccc(-n2cc(CN3CCN(c4nc5ccccc5c5ccccc45)CC3)nn2)cc1Cl` it was 50 µg/mL (≈ 106 µM); in that of `Fc1ccc(-n2cc(CN3CCN(c4nc5ccccc5c5ccccc45)CC3)nn2)cc1F`, 25 µg/mL (≈ 54.8 µM). Still for that read-out and setting: in the case of `Fc1ccc(-n2cc(CN3CCN(c4nc5ccccc5c5ccccc45)CC3)nn2)cc1` it was 25 µg/mL (≈ 57 µM).

Consider `FC(F)(F)c1cccc(-n2cc(CN3CCN(c4nc5ccccc5c5ccccc45)CC3)nn2)c1`, for which, in data set [1], the MIC99 was found to be 12.5 µg/mL (≈ 25.6 µM). Still for that read-out and setting: in the case of `O=[N+]([O-])c1cccc(-n2cc(CN3CCN(c4nc5ccccc5c5ccccc45)CC3)nn2)c1` it was 6.25 µg/mL (≈ 13.4 µM). In the case of `O=S(=O)(c1ccccc1)n1cc(CN2CCN(c3nc4ccccc4c4ccccc34)CC2)nn1`, the cytotoxicity at 50 ug/ml in data set [2] is 5.82%. In addition, the selectivity ratio in data set [3] is above 125. Besides, the IC50 in the data set with RAW264.7 is above 425 µg/mL. This compound yielded an MIC99 in data set [1] of 1.56 µg/mL (≈ 3.22 µM). Consider `Cc1ccc(S(=O)(=O)n2cc(CN3CCN(c4nc5ccccc5c5ccccc45)CC3)nn2)cc1`, for which the MIC99 in data set [1] was determined as 12.5 µg/mL (≈ 25.1 µM). The same measure, in the same setting: in the case of `NNC(=O)c1ccncc1` [ISONIAZID] it was 0.36 µg/mL (≈ 2.63 µM); in that of `CO[C@H]1/C=C/O[C@@]2(C)Oc3c(C)c(O)c4c(O)c(c(/C=N/N5CCN(C)CC5)c(O)c4c3C2=O)NC(=O)/C(C)=C\C=C\[C@H](C)[C@H](O)[C@@H](C)[C@@H](O)[C@@H](C)[C@H](OC(C)=O)[C@@H]1C` [RIFAMPIN], 0.02 µg/mL (≈ 0.0243 µM).
